T1: Solute carrier family 22 member 2 (Rattus norvegicus, UniProt Q9R0W2)
T1 sequence (Q9R0W2 whole entry): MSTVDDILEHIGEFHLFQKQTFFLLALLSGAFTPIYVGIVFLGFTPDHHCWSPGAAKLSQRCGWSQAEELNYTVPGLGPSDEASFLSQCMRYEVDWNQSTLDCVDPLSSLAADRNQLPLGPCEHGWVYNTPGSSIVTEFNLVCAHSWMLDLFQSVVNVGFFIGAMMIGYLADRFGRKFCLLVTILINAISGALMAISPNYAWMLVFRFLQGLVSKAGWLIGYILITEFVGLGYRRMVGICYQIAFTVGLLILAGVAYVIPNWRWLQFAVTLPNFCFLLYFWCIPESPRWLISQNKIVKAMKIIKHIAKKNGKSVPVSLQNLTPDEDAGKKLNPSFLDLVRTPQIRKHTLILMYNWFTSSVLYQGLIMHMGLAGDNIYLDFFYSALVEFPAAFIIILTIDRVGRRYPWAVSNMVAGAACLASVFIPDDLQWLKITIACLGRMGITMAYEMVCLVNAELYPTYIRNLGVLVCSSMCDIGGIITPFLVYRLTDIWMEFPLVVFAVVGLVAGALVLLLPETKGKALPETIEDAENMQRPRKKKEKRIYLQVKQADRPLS

T2: Solute carrier family 22 member 1 (Rattus norvegicus, UniProt Q63089)
T2 sequence (Q63089 whole entry): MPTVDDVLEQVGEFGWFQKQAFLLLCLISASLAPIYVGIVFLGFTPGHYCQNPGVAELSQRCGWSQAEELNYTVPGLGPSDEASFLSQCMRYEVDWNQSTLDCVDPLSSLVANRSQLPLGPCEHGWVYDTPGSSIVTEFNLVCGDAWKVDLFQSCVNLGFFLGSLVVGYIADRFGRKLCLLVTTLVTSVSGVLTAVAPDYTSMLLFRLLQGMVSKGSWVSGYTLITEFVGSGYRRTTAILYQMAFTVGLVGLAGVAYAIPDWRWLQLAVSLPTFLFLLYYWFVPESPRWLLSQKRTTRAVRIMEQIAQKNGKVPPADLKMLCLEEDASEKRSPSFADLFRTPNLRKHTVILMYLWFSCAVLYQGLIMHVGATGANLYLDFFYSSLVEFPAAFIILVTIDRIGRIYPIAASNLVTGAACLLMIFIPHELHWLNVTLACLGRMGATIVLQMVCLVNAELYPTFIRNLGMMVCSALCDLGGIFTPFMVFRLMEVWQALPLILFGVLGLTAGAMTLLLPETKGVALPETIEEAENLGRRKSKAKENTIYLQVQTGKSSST

B1: Solute carrier family 22 member 2 (Rattus norvegicus) (protein)
chain: T1 sequence (Q9R0W2 whole entry)
B2: Solute carrier family 22 member 1 (Rattus norvegicus) (protein)
chain: T2 sequence (Q63089 whole entry)

Key:
[1] = target: T1, Solute carrier family 22 member 2; type: functional, cell-based, Xenopus laevis, Oocyte
[2] = target: T1, Solute carrier family 22 member 2; assay: TP_TRANSPORTER: inhibition of TEA uptake (electrogenicity) in Xenopus laevis oocytes
[3] = target: T2, Solute carrier family 22 member 1; type: functional, cell-based, Xenopus laevis, Oocyte
[4] = target: T1, Solute carrier family 22 member 2; assay: TP_TRANSPORTER: inhibition of TEA uptake in Xenopus laevis oocytes; type: functional, cell-based, Oocyte
[5] = substrate: C[N+](C)(C)CCO; assay: cells, lysate or membranes named
[6] = substrate: NCCc1c[nH]cn1; assay: cells, lysate or membranes named
[7] = substrate: CC[N+](CC)(CC)CC; assay: cells, lysate or membranes named
[8] = substrate: C[n+]1ccc(-c2ccccc2)cc1; assay: (§1) TP_TRANSPORTER: uptake in Xenopus laevis oocytes; type: functional, cell-based, Oocyte
[9] = substrate: CNC(=O)c1cccnc1; assay: as §1; type: functional, cell-based, Oocyte
[10] = substrate: N=C(N)N; assay: as §1; type: functional, cell-based, Oocyte

Molecule	IC50 [1] [µM]	IC50 [3] [µM]	further results
C=C[C@H]1C[N@@]2CC[C@H]1C[C@@H]2[C@@H](O)c1ccnc2ccc(OC)cc12 [QUINIDINE]	14.6		
C[N+](C)(C)C [TETRAMETHYLAMMONIUM]	630		
CCCC[N+](CCCC)(CCCC)CCCC [TETRABUTHYLAMMONIUM]			Ki [2]: 12 µM
O=C(O)CCC(=O)C(=O)O [ALPHA-KETOGLUTARIC ACID]	700	740	
CCC[N+](CCC)(CCC)CCC [TETRAPROPYLAMMONIUM]	6.2	11.3	
CCN(CC)CCNC(=O)c1ccc(N)cc1 [PROCAINAMIDE]	445		
CC[n+]1c(CC2C=C(C)N=C(c3ccccc3)N2C)ccc2ccccc21 (stereo unspecified) [Cyanine-863]	2.56	0.51	
C=C[C@H]1C[N@@]2CC[C@H]1C[C@H]2[C@H](O)c1ccnc2ccc(OC)cc12 [QUININE]			Ki [4]: 55 µM
Nc1ccc(C(=O)NCC(=O)O)cc1 [AMINOHIPPURIC ACID]	4500	1300	
COc1cc(C(O)CNC(C)C)ccc1O (stereo unspecified) [METIPRENALINE]		37	
CCCN(CCC)S(=O)(=O)c1ccc(C(=O)O)cc1 [PROBENECID]	1700	1640	
N=C(N)N [GUANIDINE]	171	4470	
C[C@]12C[C@H](O)[C@H]3[C@@H](CCC4=CC(=O)CC[C@@]43C)[C@@H]1CC[C@@H]2C(=O)CO [CORTICOSTERONE]	4	151	
CNCCCN1c2ccccc2CCc2ccccc21 [DESIPRAMINE]	10		
CC(C)C(c1ccccc1)C(O)CC[N+]1(C)CCCCC1 (stereo unspecified) [MEPIPERPHENIDOL BROMIDE]	474	7.1	
B1			Km [5]: 604 µM; Km [6]: 278 µM; Km [7]: 91 µM; Km [8]: 17 µM; Km [9]: 245 µM; Km [10]: 172 µM
B2			Km [6]: 300 µM; Km [10]: 1660 µM
